Structures are written as SMILES. ≈ marks a conversion by molar mass, not a printed value.

The results in this text go back to PubChem BioAssay AID1996.

The conditions of the series: buffer; pH 7.4; 200.0 µM.
As to `CN(CCN1CCOCC1)Cc1nc(-c2ccc3c(c2)OCO3)no1`, the kinetic solubility (commonly solubility judged after dilution from a stock solution rather than from solid) turned out to be 48.5 µg/mL (≈ 140 µM).

Take `COCCN(CCOC)S(=O)(=O)c1ccc(Cl)nc1`: the kinetic solubility was 45.3 µg/mL (≈ 147 µM). The same measure for `COc1ccc(-c2cc3nc4n(c(=O)c3s2)CCCCC4)cc1`: below 0.3 µg/mL; for `Cc1ccc(NC(=O)Cn2cc(C(=O)C3CC3)c3ccccc32)cc1`: below 0.4 µg/mL. `CN(C)CCNC(=O)c1sc2cccc(F)c2c1Cl`: the solubility (kinetic) was determined as 40.1 µg/mL (≈ 133 µM). For the compound `COc1ccccc1N1C(=O)S/C(=C\c2ccc(C)s2)C1=O`, the kinetic solubility was below 0.7 µg/mL. As to `CCN(CC)CC#CC(O)(c1ccccc1)c1ccccc1`, the solubility (kinetic) is above 44 µg/mL. Compound `O=C(c1ccccc1F)N1CCCc2ccccc21` registered a solubility (kinetic) of 33.4 µg/mL (≈ 131 µM). The same measure for `O=[N+]([O-])c1ccc(NC(=S)NCc2ccc(F)cc2)cc1`: 4.5 µg/mL (≈ 14.7 µM); for `O=C(c1ccc(Oc2ccc(Cl)cc2)c([N+](=O)[O-])c1)N1CCCC1`: 41.1 µg/mL (≈ 119 µM). `COc1cccc(C(=O)OCC(=O)NCc2ccc3c(c2)OCO3)c1OC` came in with a solubility (kinetic) above 56 µg/mL. The same measure for `N#Cc1ncccc1CCc1cccc(Cl)c1`: 22.4 µg/mL (≈ 92.3 µM); for `CSc1ncccc1C(=O)OCC(=O)NCCCc1ccccc1`: 20.6 µg/mL (≈ 59.8 µM); for `O=S(=O)(Nc1ccc(OC(F)(F)F)cc1)c1cccc2nonc12`: 46.1 µg/mL (≈ 128 µM). The same measure for `CCOC(=O)c1c(C)[nH]c(C(=O)COC(=O)CCNS(=O)(=O)c2ccc(NC(C)=O)cc2)c1C`: 19.2 µg/mL (≈ 38.9 µM); for `COc1ccc(NC(=O)COC(=O)CCNC(=O)c2ccco2)cc1Cl`: above 57.1 µg/mL; for `Cc1cc(C)cc(NC(=O)c2sc3nc(C)cc(C)c3c2N)c1`: 0.3 µg/mL (≈ 0.922 µM). The same measure for `CCCN(Cc1cc(=O)[nH]c2ccccc12)C(=O)CC`: 38.5 µg/mL (≈ 141 µM). `CCOC(=O)c1c(C)[nH]c(C(=O)OCc2ccc(C)cc2)c1C`: the solubility (kinetic) is 3.2 µg/mL (≈ 10.1 µM). The same measure for `O=[N+]([O-])c1cnc2ccccn12`: 22.1 µg/mL (≈ 135 µM); for `O=C(O)c1cccc(NC2=C(N3CCOCC3)C(=O)c3ccccc3C2=O)c1`: above 56.8 µg/mL.

In turn, `Cc1cc(NC(=O)c2cc(-c3cccc(OCC(C)C)c3)nc3ccccc23)no1` displayed a solubility (kinetic) below 0.3 µg/mL.

`COc1cc(C(C)=O)ccc1OCC(=O)Nc1cc(C)on1` came in with a solubility (kinetic) of 8.3 µg/mL (≈ 27.3 µM). As for `CC(c1ccccc1)N1CC(C(=O)Nc2ccc(F)cc2)CC1=O` (configuration not stated), the solubility (kinetic) is above 49 µg/mL. The same measure for `COc1ccc(S(=O)(=O)NCc2cccnc2)cc1OC`: above 46.3 µg/mL.

As for `Cc1ccc(CN2CCCN(Cc3ccc(C)cc3)S2(=O)=O)cc1`, the solubility (kinetic) is below 0.4 µg/mL. The same measure for `Cc1cccc(NC(=O)Nc2c(C)n(C)n(-c3ccccc3)c2=O)c1`: above 50.5 µg/mL; for `CC(=O)N(C1=NCCCS1)c1ccc(Cl)cc1`: 32.8 µg/mL (≈ 122 µM). The same measure for `O=C(COC(=O)c1ccc(Br)o1)Nc1cccc(S(=O)(=O)N2CCOCC2)c1`: 59.2 µg/mL (≈ 125 µM); for `CC(=O)N1CCN(C(=O)c2ccc(Cl)c(S(=O)(=O)N3CC(C)OC(C)C3)c2)CC1` (configuration not stated): above 66.6 µg/mL; for `Cc1ccccc1NC(=O)CON=C(N)c1ccccc1`: above 42.5 µg/mL.

As for `Cl.Oc1ccc(Nc2ncnc3c2oc2ccccc23)cc1`, the solubility (kinetic) stood at 0.7 µg/mL.

For `COC(=O)c1cc(OC)c(OC)cc1N1C(=O)CC(C)(C)CC1=O`, the solubility (kinetic) is above 50.3 µg/mL.

In turn, `CN(C)c1ccc(NC(=O)CN2C(=O)c3ccccc3C2=O)cc1` displayed a kinetic solubility of 11.3 µg/mL (≈ 34.9 µM). Regarding `Oc1ccc(-c2nccc(-c3ccc(F)cc3)n2)cc1`, the kinetic solubility came to 2.1 µg/mL (≈ 7.89 µM). The same measure for `O=S(=O)(NC1=NCCC1)c1cccc(NC(=S)Nc2ccc(OC(F)F)cc2)c1`: above 66.1 µg/mL; for `Cc1[nH]c(=O)c(C#N)cc1-c1csc(-c2ccccc2)n1`: 0.7 µg/mL (≈ 2.39 µM). The same measure for `O=C(Nc1sc2c(c1C(=O)O)CCC2)c1ccccc1Cl`: 41.1 µg/mL (≈ 128 µM); for `O=C(Nc1cccc2ncccc12)c1ccccc1F`: 39.7 µg/mL (≈ 149 µM). With `O=C(COC(=O)/C=C/c1cccc(F)c1)NC1CC1`, the kinetic solubility was above 39.5 µg/mL. `COCCCNC(=O)C1CCN(c2ccc(N3CCOCC3)nn2)CC1` registered a kinetic solubility above 54.5 µg/mL. The same measure for `O=C(NC12CC3CC(CC(C3)C1)C2)c1ccc([N+](=O)[O-])cc1`: 5.4 µg/mL (≈ 18 µM). The same measure for `CN(c1ccc(F)cc1)S(=O)(=O)c1ccc(Cl)c(C(=O)NCc2ccco2)c1`: 34.9 µg/mL (≈ 82.5 µM); for `COc1ccc(C(=O)CC(=O)C(=O)Nc2cccc(F)c2)cc1`: 19 µg/mL (≈ 60.3 µM). The same measure for `NC(=O)NC(=O)COC(=O)c1sc2ccccc2c1Cl`: 1.2 µg/mL (≈ 3.84 µM); for `Cc1ccccc1C(=O)NC1CCN(C(=O)Nc2ccc(F)cc2)CC1`: 21.5 µg/mL (≈ 60.5 µM). The compound `c1ccc(CCn2cnc3ccccc32)cc1` yielded a kinetic solubility of 29.3 µg/mL (≈ 132 µM). The same measure for `CCC(=NCCN1CCOCC1)c1c(O)n(C2CCCCC2)c(=O)[nH]c1=O`: 52.6 µg/mL (≈ 139 µM); for `CC1CCCCC1NC(=O)COC(=O)c1ccc2c(=O)n3c(nc2c1)CCC3` (configuration not stated): 22.2 µg/mL (≈ 57.9 µM). The same measure for `Cc1cccc(NC(=O)CCNC(=O)c2ccccc2Cl)n1`: above 47.7 µg/mL. Consider `O=C(Cn1cc(C(=O)C2CC2)c2ccccc21)Nc1ccccc1Cl`, for which the solubility (kinetic) is below 0.4 µg/mL. The same measure for `COc1ccc(-c2cc(C(=O)NCc3cccs3)no2)cc1`: 0.3 µg/mL (≈ 0.954 µM). With `CCc1ccccc1NC(=S)N1CCN(c2cccc(OC)c2)CC1`, the kinetic solubility came out at 2.2 µg/mL (≈ 6.19 µM). `Cc1sc(NC(=O)CN2CCOCC2)c(C#N)c1C` registered a solubility (kinetic) above 41.9 µg/mL. The same measure for `CC(NCC#Cc1ccccc1)C(O)c1ccccc1.Cl` (configuration not stated): 44.8 µg/mL; for `Cc1ccccc1CNC(=O)C(=O)Nc1nccs1`: 1.2 µg/mL (≈ 4.36 µM).

As to `Cc1ccc(-c2noc(CCCC(=O)NC3CCCCC3)n2)cc1`, the kinetic solubility worked out at 7.8 µg/mL (≈ 23.8 µM). The same measure for `O=C1CC2C(=O)NCCN2C(=NC(=O)c2ccc(Cl)cc2)N1` (configuration not stated): 23.5 µg/mL (≈ 73.3 µM). The same measure for `CCC(C(=O)NC1CC(C)(C)NC(C)(C)C1)c1ccccc1` (configuration not stated): above 45.4 µg/mL; for `C/C(=C\C(=O)c1cccnc1)Nc1ccc(C(=O)O)cc1`: 31.3 µg/mL (≈ 111 µM); for `N#Cc1c(N2C(=O)c3ccc(C(=O)O)cc3C2=O)sc2c1CCCC2`: above 52.9 µg/mL. `CCn1c(SCc2ccccc2)nc2c(c1=O)SCC2` yielded a solubility (kinetic) of 13.5 µg/mL (≈ 44.3 µM). Consider `CCC(=O)Nc1cc(C(=O)O)ccc1Sc1ccc(Cl)cc1`, for which the kinetic solubility is above 50.4 µg/mL. For the compound `C/C(=N/OC(=O)C1CC1c1ccccc1)c1ccccc1` (configuration not stated), the kinetic solubility is 3.6 µg/mL (≈ 12.9 µM). As for `O=C1CN(CC(=O)NC2CCCc3ccccc32)CCN1` (configuration not stated), the kinetic solubility is above 43.1 µg/mL. The compound `COc1cccc(Nc2nc(-c3cccnc3)cs2)c1` gave a solubility (kinetic) of 1.3 µg/mL (≈ 4.59 µM). The same measure for `O=C(/C=C/c1ccco1)N(Cc1ccc(F)cc1)C1CCS(=O)(=O)C1` (configuration not stated): above 54.5 µg/mL; for `O=C(CSc1nnc(Nc2ccccc2)s1)NC1CCS(=O)(=O)C1` (configuration not stated): above 57.7 µg/mL; for `CC(C)C(NC(=O)c1ccco1)C(=O)NC1CCCCCC1` (configuration not stated): 37.8 µg/mL (≈ 123 µM). The same measure for `CC(=O)C1=C(O)C(=O)N(c2ccc(O)cc2)C1c1cccc(F)c1` (configuration not stated): above 49.1 µg/mL.

On to `COc1cccc(NC(=O)C(=O)NCCCN2CCCC2=O)c1`, for which the kinetic solubility was above 47.9 µg/mL. The same measure for `Cc1ccc(C(C)C)cc1S(=O)(=O)Nc1ccncc1`: 3.3 µg/mL (≈ 11.4 µM).
